These results are taken from BindingDB's records for patent US10654860 (Bristol Myers Squibb, 2020).

The target of this assay is Rho-associated protein kinase 2 (Homo sapiens, UniProt O75116). Briefly: In Vitro Assay. The method, then:
The effectiveness of compounds of the present invention as ROCK inhibitors can be determined in a 30 μL, assay containing 20 mM HEPES, pH 7.5, 20 mM MgCl2, 0.015% Brij-35, 4 mM DTT, 5 μM ATP and 1.5 μM peptide substrate (FITC-AHA-AKRRRLSSLRA-OH). Compounds were dissolved in DMSO so that the final concentration of DMSO was <2%, and the reaction was initiated with Rho kinase variants. After incubation, the reaction was terminated by the addition of EDTA and the phosphorylated and non-phosphorylated peptides separated using a LABCHIP 3000 Reader (Caliper Life Sciences). […] Compounds were tested in dose-response format, and the inhibition of kinase activity was calculated at each concentration of compound.

Structures are written as SMILES.

Sequence of Rho-associated protein kinase 2 (O75116 whole entry): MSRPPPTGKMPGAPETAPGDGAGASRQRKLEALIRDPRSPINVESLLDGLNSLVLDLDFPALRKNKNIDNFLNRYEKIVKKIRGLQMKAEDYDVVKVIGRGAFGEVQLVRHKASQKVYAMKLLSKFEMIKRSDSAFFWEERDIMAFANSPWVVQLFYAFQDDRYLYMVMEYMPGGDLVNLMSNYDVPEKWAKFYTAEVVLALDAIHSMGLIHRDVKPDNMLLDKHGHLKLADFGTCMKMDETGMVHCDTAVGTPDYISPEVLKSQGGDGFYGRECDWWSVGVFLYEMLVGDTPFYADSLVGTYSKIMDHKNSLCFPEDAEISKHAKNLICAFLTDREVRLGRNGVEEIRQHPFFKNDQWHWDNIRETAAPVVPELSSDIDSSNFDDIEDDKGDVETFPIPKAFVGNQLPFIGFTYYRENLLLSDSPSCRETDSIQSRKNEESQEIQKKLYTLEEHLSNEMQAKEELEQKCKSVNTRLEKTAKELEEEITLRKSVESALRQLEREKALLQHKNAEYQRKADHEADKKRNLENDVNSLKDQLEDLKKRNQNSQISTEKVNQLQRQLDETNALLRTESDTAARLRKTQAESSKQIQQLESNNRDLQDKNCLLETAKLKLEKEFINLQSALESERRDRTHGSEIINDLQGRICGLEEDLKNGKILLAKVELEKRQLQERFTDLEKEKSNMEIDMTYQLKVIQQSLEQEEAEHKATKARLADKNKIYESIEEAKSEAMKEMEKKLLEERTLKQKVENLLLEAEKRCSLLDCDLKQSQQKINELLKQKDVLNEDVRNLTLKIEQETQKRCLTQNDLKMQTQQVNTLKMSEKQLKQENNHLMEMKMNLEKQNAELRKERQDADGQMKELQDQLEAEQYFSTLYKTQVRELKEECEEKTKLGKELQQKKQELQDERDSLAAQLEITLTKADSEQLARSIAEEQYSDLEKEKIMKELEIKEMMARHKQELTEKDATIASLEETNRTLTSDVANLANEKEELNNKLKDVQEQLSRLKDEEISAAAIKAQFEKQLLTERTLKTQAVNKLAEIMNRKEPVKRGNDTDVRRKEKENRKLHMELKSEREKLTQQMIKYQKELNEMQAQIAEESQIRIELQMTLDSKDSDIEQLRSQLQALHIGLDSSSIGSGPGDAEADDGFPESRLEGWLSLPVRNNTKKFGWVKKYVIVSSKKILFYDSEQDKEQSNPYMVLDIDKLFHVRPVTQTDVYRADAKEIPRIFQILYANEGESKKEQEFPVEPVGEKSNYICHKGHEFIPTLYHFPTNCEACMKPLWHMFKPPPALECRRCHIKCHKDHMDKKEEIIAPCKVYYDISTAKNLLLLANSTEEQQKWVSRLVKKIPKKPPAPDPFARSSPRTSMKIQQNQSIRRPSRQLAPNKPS

The IC50 is the point on the concentration scale where inhibition reaches its midpoint. A high value points to lower potency. With `N[C@H](CCc1ccccc1)C(=O)Nc1ccc2c(c1)CCc1n[nH]cc1-2` [US10654860, Example 4], the half-maximal inhibitory concentration (IC50) was less than 10 nM.
